Data published in publication PMC9487510, “A Novel Oral GyrB/ParE Dual Binding Inhibitor Effective against Multidrug-Resistant Neisseria gonorrhoeae and Other High-Threat Pathogens” (Antimicrobial Agents and Chemotherapy, 2022).
Values after ≈ are worked out from the molar mass of the structure shown.

Columns and labels:
[1] = test system: N. gonorrhoeae clinical isolates; test: MIC, agar dilution (CLSI); type: cell-based, Neisseria gonorrhoeae
S. aureus VRSA, VRS-2 = test: Neutropenic murine thigh infection model; type: in vivo, mouse (ICR); details: PO 50 mg/kg BID, 26 h after infection

CC1(C)S[C@@H]2[C@H](NC(=O)Cc3ccccc3)C(=O)N2[C@H]1C(=O)O [Pen, penicillin]
MIC50 ([1]; 96 clinical isolates): 1 µg/mL (≈ 2.99 µM) | MIC90 ([1]; 96 clinical isolates): 2 µg/mL (≈ 5.98 µM) | MIC range ([1]; 96 clinical isolates): <0.008 to 4 µg/mL | MIC ([1]; strain CDC1 (GCREF2012 016)): 1 µg/mL (≈ 2.99 µM) | MIC ([1]; strain CDC2 (GCREF2012 045)): 1 µg/mL (≈ 2.99 µM) | MIC ([1]; strain CDC3 (GCREF2013 013)): 1 µg/mL (≈ 2.99 µM) | MIC ([1]; strain CDC4 (GCREF2013 030)): 1 µg/mL (≈ 2.99 µM) | MIC ([1]; strain CDC5 (GCREF2012 001)): 1 µg/mL (≈ 2.99 µM) | MIC ([1]; strain CDC6 (GCREF2012 002)): 1 µg/mL (≈ 2.99 µM) | MIC ([1]; strain CDC8 (GCREF2012 004)): 0.25 µg/mL (≈ 0.748 µM) | MIC ([1]; strain CDC9 (GCREF2012 005)): 1 µg/mL (≈ 2.99 µM) | MIC ([1]; strain CDC10 (GCREF2012 006)): 1 µg/mL (≈ 2.99 µM) | MIC ([1]; strain CDC11 (GCREF2012 007)): 1 µg/mL (≈ 2.99 µM) | MIC ([1]; strain CDC12 (GCREF2012 008)): 1 µg/mL (≈ 2.99 µM) | MIC ([1]; strain CDC13 (GCREF2012 009)): 1 µg/mL (≈ 2.99 µM) | MIC ([1]; strain CDC14 (GCREF2012 010)): 1 µg/mL (≈ 2.99 µM) | MIC ([1]; strain CDC15 (GCREF2012 011)): 0.125 µg/mL (≈ 0.374 µM) | MIC ([1]; strain CDC16 (GCREF2012 012)): 2 µg/mL (≈ 5.98 µM) | MIC ([1]; strain CDC18 (GCREF2012 014)): 1 µg/mL (≈ 2.99 µM) | MIC ([1]; strain CDC19 (GCREF2012 015)): 0.25 µg/mL (≈ 0.748 µM) | MIC ([1]; strain CDC20 (GCREF2012 017)): 0.125 µg/mL (≈ 0.374 µM) | MIC ([1]; strain CDC21 (GCREF2012 018)): 1 µg/mL (≈ 2.99 µM) | MIC ([1]; strain CDC22 (GCREF2012 019)): 0.25 µg/mL (≈ 0.748 µM) | MIC ([1]; strain CDC23 (GCREF2012 020)): 1 µg/mL (≈ 2.99 µM) | MIC ([1]; strain CDC24 (GCREF2012 021)): 1 µg/mL (≈ 2.99 µM) | MIC ([1]; strain CDC25 (GCREF2012 022)): 2 µg/mL (≈ 5.98 µM) | MIC ([1]; strain CDC26 (GCREF2012 023)): 0.25 µg/mL (≈ 0.748 µM) | MIC ([1]; strain CDC27 (GCREF2012 024)): 1 µg/mL (≈ 2.99 µM) | MIC ([1]; strain CDC28 (GCREF2012 025)): 1 µg/mL (≈ 2.99 µM) | MIC ([1]; strain CDC29 (GCREF2012 026)): 1 µg/mL (≈ 2.99 µM) | MIC ([1]; strain CDC30 (GCREF2012 027)): 1 µg/mL (≈ 2.99 µM) | MIC ([1]; strain CDC31 (GCREF2012 028)): 2 µg/mL (≈ 5.98 µM) | MIC ([1]; strain CDC32 (GCREF2012 029)): 1 µg/mL (≈ 2.99 µM) | MIC ([1]; strain CDC33 (GCREF2012 030)): 1 µg/mL (≈ 2.99 µM) | MIC ([1]; strain CDC34 (GCREF2012 031)): 1 µg/mL (≈ 2.99 µM) | MIC ([1]; strain CDC35 (GCREF2012 032)): 2 µg/mL (≈ 5.98 µM) | MIC ([1]; strain CDC36 (GCREF2012 033)): 0.25 µg/mL (≈ 0.748 µM) | MIC ([1]; strain CDC37 (GCREF2012 034)): 1 µg/mL (≈ 2.99 µM) | MIC ([1]; strain CDC38 (GCREF2012 035)): 1 µg/mL (≈ 2.99 µM) | MIC ([1]; strain CDC39 (GCREF2012 036)): 2 µg/mL (≈ 5.98 µM) | MIC ([1]; strain CDC40 (GCREF2012 037)): 1 µg/mL (≈ 2.99 µM) | MIC ([1]; strain CDC41 (GCREF2012 038)): 2 µg/mL (≈ 5.98 µM) | MIC ([1]; strain CDC42 (GCREF2012 039)): 2 µg/mL (≈ 5.98 µM) | MIC ([1]; strain CDC43 (GCREF2012 040)): 2 µg/mL (≈ 5.98 µM) | MIC ([1]; strain CDC45 (GCREF2012 042)): 2 µg/mL (≈ 5.98 µM) | MIC ([1]; strain CDC46 (GCREF2012 043)): 1 µg/mL (≈ 2.99 µM) | MIC ([1]; strain CDC47 (GCREF2012 044)): 1 µg/mL (≈ 2.99 µM) | MIC ([1]; strain CDC48 (GCREF2012 046)): 1 µg/mL (≈ 2.99 µM) | MIC ([1]; strain CDC49 (GCREF2012 047)): 2 µg/mL (≈ 5.98 µM) | MIC ([1]; strain CDC50 (GCREF2012 048)): 2 µg/mL (≈ 5.98 µM) | MIC ([1]; strain CDC51 (GCREF2012 049)): 2 µg/mL (≈ 5.98 µM) | MIC ([1]; strain CDC52 (GCREF2012 050)): 2 µg/mL (≈ 5.98 µM) | MIC ([1]; strain CDC53 (GCREF2012 051)): 2 µg/mL (≈ 5.98 µM) | MIC ([1]; strain CDC54 (GCREF2012 052)): 2 µg/mL (≈ 5.98 µM) | MIC ([1]; strain CDC55 (GCREF2013 001)): 1 µg/mL (≈ 2.99 µM) | MIC ([1]; strain CDC56 (GCREF2013 002)): 1 µg/mL (≈ 2.99 µM) | MIC ([1]; strain CDC57 (GCREF2013 003)): 1 µg/mL (≈ 2.99 µM) | MIC ([1]; strain CDC58 (GCREF2013 004)): 2 µg/mL (≈ 5.98 µM) | MIC ([1]; strain CDC59 (GCREF2013 044)): 2 µg/mL (≈ 5.98 µM) | MIC ([1]; strain CDC60 (GCREF2013 005)): 4 µg/mL (≈ 12 µM) | MIC ([1]; strain CDC61 (GCREF2013 006)): 4 µg/mL (≈ 12 µM) | MIC ([1]; strain CDC62 (GCREF2013 007)): 0.25 µg/mL (≈ 0.748 µM) | MIC ([1]; strain CDC64 (GCREF2013 009)): 0.5 µg/mL (≈ 1.5 µM) | MIC ([1]; strain CDC65 (GCREF2013 010)): 0.5 µg/mL (≈ 1.5 µM) | MIC ([1]; strain CDC66 (GCREF2013 011)): 0.25 µg/mL (≈ 0.748 µM) | MIC ([1]; strain CDC67 (GCREF2013 014)): 0.5 µg/mL (≈ 1.5 µM) | MIC ([1]; strain CDC68 (GCREF2013 016)): 1 µg/mL (≈ 2.99 µM) | MIC ([1]; strain CDC69 (GCREF2013 017)): 1 µg/mL (≈ 2.99 µM) | MIC ([1]; strain CDC70 (GCREF2013 018)): 2 µg/mL (≈ 5.98 µM) | MIC ([1]; strain CDC71 (GCREF2013 019)): 0.25 µg/mL (≈ 0.748 µM) | MIC ([1]; strain CDC72 (GCREF2013 020)): 2 µg/mL (≈ 5.98 µM) | MIC ([1]; strain CDC73 (GCREF2013 021)): 0.5 µg/mL (≈ 1.5 µM) | MIC ([1]; strain CDC74 (GCREF2013 022)): 0.25 µg/mL (≈ 0.748 µM) | MIC ([1]; strain CDC75 (GCREF2013 023)): 0.5 µg/mL (≈ 1.5 µM) | MIC ([1]; strain CDC76 (GCREF2013 024)): 0.5 µg/mL (≈ 1.5 µM) | MIC ([1]; strain CDC77 (GCREF2013 025)): 0.125 µg/mL (≈ 0.374 µM) | MIC ([1]; strain CDC78 (GCREF2013 026)): 0.5 µg/mL (≈ 1.5 µM) | MIC ([1]; strain CDC79 (GCREF2013 027)): 1 µg/mL (≈ 2.99 µM) | MIC ([1]; strain CDC80 (GCREF2013 028)): 2 µg/mL (≈ 5.98 µM) | MIC ([1]; strain CDC81 (GCREF2013 029)): 2 µg/mL (≈ 5.98 µM) | MIC ([1]; strain CDC82 (GCREF2013 031)): 1 µg/mL (≈ 2.99 µM) | MIC ([1]; strain CDC83 (GCREF2013 032)): 0.25 µg/mL (≈ 0.748 µM) | MIC ([1]; strain CDC84 (GCREF2013 033)): 0.25 µg/mL (≈ 0.748 µM) | MIC ([1]; strain CDC87 (GCREF2013 036)): 2 µg/mL (≈ 5.98 µM) | MIC ([1]; strain CDC88 (GCREF2013 037)): 2 µg/mL (≈ 5.98 µM) | MIC ([1]; strain CDC89 (GCREF2013 038)): 1 µg/mL (≈ 2.99 µM) | MIC ([1]; strain CDC90 (GCREF2013 039)): 2 µg/mL (≈ 5.98 µM) | MIC ([1]; strain CDC91 (GCREF2013 040)): 2 µg/mL (≈ 5.98 µM) | MIC ([1]; strain CDC92 (GCREF2013 041)): 2 µg/mL (≈ 5.98 µM) | MIC ([1]; strain CDC93 (GCREF2013 042)): 1 µg/mL (≈ 2.99 µM) | MIC ([1]; strain CDC94 (GCREF2013 043)): 0.25 µg/mL (≈ 0.748 µM) | MIC ([1]; strain CDC95 (GCREF2013 045)): 2 µg/mL (≈ 5.98 µM) | MIC ([1]; strain CDC96 (GCREF2013 046)): 1 µg/mL (≈ 2.99 µM) | MIC ([1]; strain CDC97 (GCREF2013 047)): 1 µg/mL (≈ 2.99 µM) | MIC ([1]; strain CDC98 (GCREF2013 048)): 0.25 µg/mL (≈ 0.748 µM) | MIC ([1]; strain CDC99 (GCREF2013 012)): 0.25 µg/mL (≈ 0.748 µM) | MIC ([1]; strain CDC100 (GCREF2013 015)): 1 µg/mL (≈ 2.99 µM)

CC(=O)NC[C@H]1CN(c2ccc(N3CCOCC3)c(F)c2)C(=O)O1 [linezolid]
bacterial count reduction in thigh (S. aureus VRSA, VRS-2): 3.41 log10
